Assay results: ChEMBL document CHEMBL1201862, “PubChem BioAssay data set” (2004)
Calls of active or inactive are those of the source.

Key:
[1] = molecular target: Transitional endoplasmic reticulum ATPase (Homo sapiens, UniProt P55072, C522A); experiment: C522A mutant p97 ATPase inhibitors, dose response, counter-screen for p97 inhibitor project, biochemical, luminescence (AID 1544)
[2] = molecular target: Transitional endoplasmic reticulum ATPase (Homo sapiens, UniProt P55072); experiment: p97 ATPase inhibitors, dose response, biochemical (AID 1534)
[3] = Luminescence Cell-Based Dose Retest to Confirm Inhibitors of Cancer Stem Cells. [Related pubchem assays (depositor defined):AID2717, AID2721]; type: functional; settings: Homo sapiens
[4] = molecular target: DNA damage-inducible transcript 3 protein (Mus musculus, UniProt P35639); type: functional, Cricetulus griseus
X-box-binding protein 1 = X-box-binding protein 1 (Homo sapiens, UniProt P17861); type: functional, Cricetulus griseus;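 note: confirmatory dose-response counter-screen serving a CHOP assay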
[5] = molecular target: Luciferin 4-monooxygenase (Photinus pyralis, UniProt P08659); experiment: firefly luciferase enzyme inhibitors, dose response, biochemical, luminescence (AID 1891)
[6] = Luminescence Cell-Based Dose Confirmation HTS to Identify Inhibitors of Platelet Dense Granule Release. [Related pubchem assays: 1663 (Primary HTS), 1678 (Summary of Project)]; type: functional
Ion channel NompC = Ion channel NompC (Danio rerio, UniProt Q7T1G6); experiment: Dose response cell-based high-throughput screening assay for agonists of the transient receptor potential channel N1 (TRPN1). [Related pubchem assays (depositor defined):AID1424, AID1448]; type: functional
[7] = inhibitors of intracellular T. cruzi replication, confirmation, NIH3T3 host cells, beta-gal luminescence (AID 2044); type: functional, cell-based;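 note: intracellular parasites grown in NIH/3T3 mouse fibroblasts as host cells; luminescent beta-galactosidase reporter signal from transgenic T. cruzi replicating inside host cells; inhibitors lower the luminescence signal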
Mucolipin-3 = Mucolipin-3 (Homo sapiens, UniProt Q8TDD5); experiment: Fluorescence counterscreen assay for […] agonists: dose response cell-based high-throughput screening assay to identify agonists of the transient receptor potential channel ML3 (TRPML3). [Related pubchem assays: 1424, 1448 ]; type: functional
[8] = cytotoxicity toward NIH3T3 fibroblasts, dose response, counter-screen, cell-based, ATP luminescence, mouse fibroblasts (AID 2010); type: functional;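 note: cells exposed to compound for about 90 hours before reading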
[9] = molecular target: T1, Short transient receptor potential channel 4 (Mus musculus, UniProt Q9QUQ5); experiment: mouse TRPC4 channel activators, dose response, cell-based, HEK293 TRPC4/mu-opioid, Fluo-4 calcium (AID 434937); type: functional
T1 sequence (Q9QUQ5 whole entry): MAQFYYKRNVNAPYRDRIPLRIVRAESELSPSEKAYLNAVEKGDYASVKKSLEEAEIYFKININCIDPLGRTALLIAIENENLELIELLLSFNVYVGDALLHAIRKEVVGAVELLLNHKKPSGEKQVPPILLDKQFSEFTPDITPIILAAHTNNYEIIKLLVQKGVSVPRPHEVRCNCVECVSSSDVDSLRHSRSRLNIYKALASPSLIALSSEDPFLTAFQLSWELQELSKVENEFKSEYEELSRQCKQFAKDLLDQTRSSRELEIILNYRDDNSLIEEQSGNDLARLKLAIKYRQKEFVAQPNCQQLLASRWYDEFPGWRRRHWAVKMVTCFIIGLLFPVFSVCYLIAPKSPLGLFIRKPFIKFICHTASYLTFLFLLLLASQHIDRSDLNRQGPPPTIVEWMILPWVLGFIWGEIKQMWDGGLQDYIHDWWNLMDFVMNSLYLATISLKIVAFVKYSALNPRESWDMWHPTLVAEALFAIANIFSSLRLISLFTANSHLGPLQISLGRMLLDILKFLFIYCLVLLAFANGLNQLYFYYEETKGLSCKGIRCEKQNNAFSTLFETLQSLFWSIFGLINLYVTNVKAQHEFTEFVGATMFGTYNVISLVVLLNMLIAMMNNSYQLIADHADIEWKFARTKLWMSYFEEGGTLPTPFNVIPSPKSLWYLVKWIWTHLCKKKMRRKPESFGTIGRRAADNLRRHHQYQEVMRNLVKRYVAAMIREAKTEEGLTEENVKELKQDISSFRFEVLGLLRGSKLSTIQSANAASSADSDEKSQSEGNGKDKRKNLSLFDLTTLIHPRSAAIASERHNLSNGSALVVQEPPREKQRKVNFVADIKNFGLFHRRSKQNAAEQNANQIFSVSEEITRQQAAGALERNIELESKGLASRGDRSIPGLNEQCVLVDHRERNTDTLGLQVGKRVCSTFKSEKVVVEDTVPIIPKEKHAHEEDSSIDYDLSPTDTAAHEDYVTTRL

Vero [10] = experiment: cells; type: functional, cell-based; settings: Chlorocebus sabaeus
Vero [11] = experiment: cells; type: functional; settings: Chlorocebus sabaeus
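Throughout, for AC50: cells exposed to compound for roughly 70 hours or longer before luminescence read.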

Ion channel NompC, sequence (Q7T1G6 whole entry): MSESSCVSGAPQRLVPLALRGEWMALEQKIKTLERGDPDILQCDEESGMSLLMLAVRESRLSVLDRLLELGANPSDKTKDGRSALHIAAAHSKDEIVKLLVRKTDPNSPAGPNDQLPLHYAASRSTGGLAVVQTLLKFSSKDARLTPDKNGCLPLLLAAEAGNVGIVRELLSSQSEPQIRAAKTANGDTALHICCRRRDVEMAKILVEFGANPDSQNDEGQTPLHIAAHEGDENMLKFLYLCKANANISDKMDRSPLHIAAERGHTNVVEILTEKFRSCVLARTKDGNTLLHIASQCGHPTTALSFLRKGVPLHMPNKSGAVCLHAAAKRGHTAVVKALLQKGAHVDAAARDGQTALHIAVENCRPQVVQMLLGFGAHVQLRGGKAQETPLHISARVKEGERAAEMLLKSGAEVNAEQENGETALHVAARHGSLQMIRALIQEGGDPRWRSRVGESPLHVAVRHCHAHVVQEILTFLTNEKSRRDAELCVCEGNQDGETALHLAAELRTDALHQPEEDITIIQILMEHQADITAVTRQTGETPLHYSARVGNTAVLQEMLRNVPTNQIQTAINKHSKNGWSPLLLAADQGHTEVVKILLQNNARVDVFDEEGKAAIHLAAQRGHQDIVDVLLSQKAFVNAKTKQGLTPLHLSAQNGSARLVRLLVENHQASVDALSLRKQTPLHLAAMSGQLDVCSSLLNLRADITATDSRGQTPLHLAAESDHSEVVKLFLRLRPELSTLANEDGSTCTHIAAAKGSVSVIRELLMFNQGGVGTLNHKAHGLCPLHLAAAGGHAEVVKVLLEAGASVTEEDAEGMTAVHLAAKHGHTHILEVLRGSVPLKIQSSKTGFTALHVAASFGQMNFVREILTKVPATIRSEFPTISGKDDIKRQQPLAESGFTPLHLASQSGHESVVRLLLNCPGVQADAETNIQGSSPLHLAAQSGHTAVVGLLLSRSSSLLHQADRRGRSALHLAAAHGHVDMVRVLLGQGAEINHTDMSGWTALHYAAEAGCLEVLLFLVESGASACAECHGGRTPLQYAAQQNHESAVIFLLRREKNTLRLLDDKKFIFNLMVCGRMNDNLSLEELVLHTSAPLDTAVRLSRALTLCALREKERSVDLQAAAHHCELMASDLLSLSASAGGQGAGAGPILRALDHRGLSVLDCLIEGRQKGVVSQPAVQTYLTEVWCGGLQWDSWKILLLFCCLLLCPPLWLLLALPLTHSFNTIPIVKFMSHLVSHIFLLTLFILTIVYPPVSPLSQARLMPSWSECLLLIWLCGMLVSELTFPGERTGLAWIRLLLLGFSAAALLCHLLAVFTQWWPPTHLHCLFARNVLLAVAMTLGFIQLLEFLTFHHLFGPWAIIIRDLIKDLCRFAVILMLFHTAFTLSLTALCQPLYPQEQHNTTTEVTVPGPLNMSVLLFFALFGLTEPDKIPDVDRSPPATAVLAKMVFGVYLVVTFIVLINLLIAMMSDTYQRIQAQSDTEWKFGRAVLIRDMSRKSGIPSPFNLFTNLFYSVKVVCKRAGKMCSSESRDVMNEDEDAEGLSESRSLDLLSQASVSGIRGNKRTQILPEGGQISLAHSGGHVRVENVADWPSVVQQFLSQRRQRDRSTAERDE
Transitional endoplasmic reticulum ATPase (Homo sapiens, UniProt P55072, C522A), sequence (P55072 2-806 C522A limits assumed): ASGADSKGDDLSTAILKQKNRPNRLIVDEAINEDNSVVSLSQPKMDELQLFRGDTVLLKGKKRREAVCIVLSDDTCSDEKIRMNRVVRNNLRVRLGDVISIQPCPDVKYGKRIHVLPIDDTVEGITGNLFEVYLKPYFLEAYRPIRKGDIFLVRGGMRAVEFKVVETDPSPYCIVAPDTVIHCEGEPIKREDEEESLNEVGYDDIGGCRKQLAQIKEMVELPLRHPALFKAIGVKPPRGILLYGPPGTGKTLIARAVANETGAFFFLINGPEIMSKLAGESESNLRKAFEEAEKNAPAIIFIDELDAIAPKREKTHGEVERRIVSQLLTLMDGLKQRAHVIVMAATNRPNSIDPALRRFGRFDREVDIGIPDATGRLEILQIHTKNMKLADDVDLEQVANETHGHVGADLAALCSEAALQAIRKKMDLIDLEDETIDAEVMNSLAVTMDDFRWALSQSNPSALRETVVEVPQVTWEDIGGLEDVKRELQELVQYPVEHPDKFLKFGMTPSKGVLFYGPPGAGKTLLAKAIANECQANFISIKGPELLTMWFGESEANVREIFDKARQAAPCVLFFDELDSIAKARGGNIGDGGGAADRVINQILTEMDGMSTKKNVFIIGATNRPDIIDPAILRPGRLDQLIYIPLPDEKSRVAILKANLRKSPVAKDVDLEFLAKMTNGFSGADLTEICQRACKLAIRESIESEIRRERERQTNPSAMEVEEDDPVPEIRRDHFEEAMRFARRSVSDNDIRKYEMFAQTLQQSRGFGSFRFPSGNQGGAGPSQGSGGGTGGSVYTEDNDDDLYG
Luciferin 4-monooxygenase, sequence (P08659 whole entry): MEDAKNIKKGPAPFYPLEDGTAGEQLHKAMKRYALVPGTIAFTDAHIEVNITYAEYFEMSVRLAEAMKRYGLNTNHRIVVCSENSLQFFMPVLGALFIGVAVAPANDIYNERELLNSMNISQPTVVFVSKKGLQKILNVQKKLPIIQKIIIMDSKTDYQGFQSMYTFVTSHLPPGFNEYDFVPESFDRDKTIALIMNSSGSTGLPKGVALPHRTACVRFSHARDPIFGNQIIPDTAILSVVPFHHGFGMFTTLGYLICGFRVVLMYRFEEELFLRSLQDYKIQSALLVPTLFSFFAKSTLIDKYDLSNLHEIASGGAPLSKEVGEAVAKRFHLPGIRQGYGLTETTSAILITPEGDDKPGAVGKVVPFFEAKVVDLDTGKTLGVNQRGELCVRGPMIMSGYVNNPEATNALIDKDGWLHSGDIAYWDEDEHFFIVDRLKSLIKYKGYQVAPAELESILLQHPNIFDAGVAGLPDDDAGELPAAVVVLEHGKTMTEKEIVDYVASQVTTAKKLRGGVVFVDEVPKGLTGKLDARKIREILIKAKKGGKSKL
Mucolipin-3, sequence (Q8TDD5 whole entry): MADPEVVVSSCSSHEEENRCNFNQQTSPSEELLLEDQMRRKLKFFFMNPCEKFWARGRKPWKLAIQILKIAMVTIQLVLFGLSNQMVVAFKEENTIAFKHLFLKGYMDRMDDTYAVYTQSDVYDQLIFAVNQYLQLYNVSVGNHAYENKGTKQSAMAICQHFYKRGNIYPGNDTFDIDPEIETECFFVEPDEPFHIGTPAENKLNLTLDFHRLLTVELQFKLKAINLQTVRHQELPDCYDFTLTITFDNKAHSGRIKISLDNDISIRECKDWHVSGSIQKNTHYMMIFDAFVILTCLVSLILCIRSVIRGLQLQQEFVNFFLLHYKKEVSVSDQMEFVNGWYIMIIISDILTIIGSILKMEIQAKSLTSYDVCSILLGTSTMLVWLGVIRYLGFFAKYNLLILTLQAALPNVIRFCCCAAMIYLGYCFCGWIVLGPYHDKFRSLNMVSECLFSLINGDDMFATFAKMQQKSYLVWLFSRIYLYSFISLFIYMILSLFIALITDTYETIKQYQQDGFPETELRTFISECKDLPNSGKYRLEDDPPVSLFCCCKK
Transitional endoplasmic reticulum ATPase (Homo sapiens, UniProt P55072), sequence (P55072 whole entry): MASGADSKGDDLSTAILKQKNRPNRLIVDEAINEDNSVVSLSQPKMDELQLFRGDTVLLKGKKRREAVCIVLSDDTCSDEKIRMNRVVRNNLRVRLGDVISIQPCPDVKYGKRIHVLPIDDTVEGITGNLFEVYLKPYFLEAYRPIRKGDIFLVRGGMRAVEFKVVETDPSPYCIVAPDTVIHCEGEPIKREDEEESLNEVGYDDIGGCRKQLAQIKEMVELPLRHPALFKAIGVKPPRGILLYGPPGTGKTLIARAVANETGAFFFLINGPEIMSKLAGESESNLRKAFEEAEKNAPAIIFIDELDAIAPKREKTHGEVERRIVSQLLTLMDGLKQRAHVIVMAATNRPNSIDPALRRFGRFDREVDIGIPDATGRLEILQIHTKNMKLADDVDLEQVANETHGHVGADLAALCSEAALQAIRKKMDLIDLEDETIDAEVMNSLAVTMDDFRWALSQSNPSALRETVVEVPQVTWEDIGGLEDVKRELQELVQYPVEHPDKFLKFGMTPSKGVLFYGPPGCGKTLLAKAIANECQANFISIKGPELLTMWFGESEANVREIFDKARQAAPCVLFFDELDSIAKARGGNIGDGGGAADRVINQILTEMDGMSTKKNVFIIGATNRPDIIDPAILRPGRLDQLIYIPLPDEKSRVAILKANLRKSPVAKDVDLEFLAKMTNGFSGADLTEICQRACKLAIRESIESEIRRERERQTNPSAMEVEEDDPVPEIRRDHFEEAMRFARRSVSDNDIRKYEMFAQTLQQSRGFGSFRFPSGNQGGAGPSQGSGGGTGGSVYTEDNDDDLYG
X-box-binding protein 1, sequence (P17861 whole entry): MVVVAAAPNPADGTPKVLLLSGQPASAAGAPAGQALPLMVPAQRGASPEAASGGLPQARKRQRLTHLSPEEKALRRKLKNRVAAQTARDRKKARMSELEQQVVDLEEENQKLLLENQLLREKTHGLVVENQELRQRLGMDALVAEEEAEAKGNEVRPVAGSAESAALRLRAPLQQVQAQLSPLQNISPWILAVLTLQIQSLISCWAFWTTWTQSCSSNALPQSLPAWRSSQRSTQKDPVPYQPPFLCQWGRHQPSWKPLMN
DNA damage-inducible transcript 3 protein, sequence (P35639 whole entry): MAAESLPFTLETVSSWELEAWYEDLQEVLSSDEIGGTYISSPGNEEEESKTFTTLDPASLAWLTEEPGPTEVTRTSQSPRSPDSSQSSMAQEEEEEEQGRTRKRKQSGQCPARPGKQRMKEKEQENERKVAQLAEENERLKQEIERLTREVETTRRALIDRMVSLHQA

Row | SMILES | IC50 [1] | IC50 [2] | AC50 [3] | Absolute IC50 (CHOP) [4] [µM] | Absolute IC50 (XBP1) (X-box-binding protein 1) [µM] | EC50 [5] | EC50 [6] | EC50 (Ion channel NompC) | EC50 [7] | EC50 (Mucolipin-3) | EC50 [8] | EC50 [9] | IC50 (Vero [10]) | CC50 (Vero [11])
1 | Cc1cc(Nc2ccccc2)nc(-c2ccccc2O)n1 | > 50 µM (not active) | > 50 µM (not active) | 5.64 µM (active) | 10 | < 10 | – | – | – | – | – | – | – | – | –
2 | CC(C)(C)c1ccc(C(=O)NC(=S)NNC(=O)c2cccs2)cc1 | – | – | – | – | – | > 112 µM (not active) | 24.5 µM (active) | 0.168 µM (active) | 2.15 µM (active) | 0.292 µM (active) | 13.5 µM (active) | 1.5 µM (active) | > 12.5 µM (active) | 17.4 µM (active)
